According to ChEMBL document CHEMBL1151560, “Nonpeptide glycoprotein IIb/IIIa inhibitors: 18. Indole alpha-sulfonamide acids are potent inhibitors of platelet aggregation” (Bioorg Med Chem Lett, 1997):

Experiments:
[1] = target: Integrin alpha-IIb/beta-3 (Homo sapiens) (UniProt P05106+P08514); assay: Evaluated for competitive binding against fibrinogen receptor antagonist [125I]-L-692,884 to purified alpha IIb beta-3 integrin activated by coating onto yttrium silicate Scintillation Proximity Assay Fluomicrospheres (SPA-A assay).; type: protein-complex assay
Homo sapiens = organism: Homo sapiens; assay: Inhibition of ADP-induced platelet aggregation in human gel-filtered platelets; type: functional
Albumin [2] = target: T1, Albumin (Homo sapiens, UniProt P02768); assay: Protein Binding Assay measures the ability of a compound to bind to human albumin in pH 7.4 buffer.
Albumin [3] = target: T1, Albumin; assay: Protein Binding Assay measures the ability of a compound to bind to human albumin in pH 7.4 buffer.; not soluble

T1 sequence (P02768 whole entry): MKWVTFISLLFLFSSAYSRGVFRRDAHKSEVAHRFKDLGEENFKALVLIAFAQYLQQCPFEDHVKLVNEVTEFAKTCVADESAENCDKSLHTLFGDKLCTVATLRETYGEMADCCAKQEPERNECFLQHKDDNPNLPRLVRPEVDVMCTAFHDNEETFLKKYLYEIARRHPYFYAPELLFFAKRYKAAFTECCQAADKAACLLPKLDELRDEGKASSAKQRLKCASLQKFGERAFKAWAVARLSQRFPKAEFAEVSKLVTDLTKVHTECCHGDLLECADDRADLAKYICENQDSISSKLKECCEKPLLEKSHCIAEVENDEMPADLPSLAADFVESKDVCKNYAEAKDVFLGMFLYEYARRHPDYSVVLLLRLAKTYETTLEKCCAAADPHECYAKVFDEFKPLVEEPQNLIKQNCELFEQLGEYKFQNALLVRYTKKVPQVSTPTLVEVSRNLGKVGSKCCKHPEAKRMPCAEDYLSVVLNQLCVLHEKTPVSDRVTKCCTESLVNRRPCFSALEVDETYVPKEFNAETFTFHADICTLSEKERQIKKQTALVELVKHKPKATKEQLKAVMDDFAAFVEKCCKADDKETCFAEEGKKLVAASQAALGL

| SMILES | ED50 [1] | IC50 (Homo sapiens) | Binding (Albumin [2]) | Binding (Albumin [3]) |
| --- | --- | --- | --- | --- |
| CC1(C)C2CCC1(CS(=O)(=O)N[C@@H](CNC(=O)c1cc3cc(OCC4CCNCC4)ccc3[nH]1)C(=O)O)C(=O)C2 (stereo not given in full) | 0.04 nM | 17 nM | 63% | – |
| O=C(NC[C@H](NS(=O)(=O)c1ccccc1)C(=O)O)c1cc2cc(OCC3CCNCC3)ccc2n1Cc1ccccc1 | – | 150 nM | – | Insoluble |
| O=C(NC[C@H](NS(=O)(=O)c1ccccc1)C(=O)O)c1cc2cc(OCCn3ccnc3)ccc2[nH]1 | 0.28 nM | 45 nM | 98% | – |
| Cn1c(C(=O)NC[C@H](NS(=O)(=O)c2ccccc2)C(=O)O)cc2cc(OCCC3CCNCC3)ccc21 | – | 21 nM | 94% | – |
| O=C(NC[C@H](NS(=O)(=O)c1ccccc1)C(=O)O)c1cc2cc(OCCCc3c[nH]cn3)ccc2[nH]1 | 2 nM | 100 nM | 98% | – |
| O=C(Cc1c[nH]c2ccc(OCC3CCNCC3)cc12)NC[C@H](NS(=O)(=O)c1ccccc1)C(=O)O | – | 5700 nM | – | Insoluble |
| O=C(O)CC(NC(=O)c1cc2cc(OCC3CCNCC3)ccc2[nH]1)c1cccnc1 (stereo not given) | – | 810 nM | 47% | – |
| Nc1cc(COc2ccc3[nH]c(C(=O)NC[C@H](NS(=O)(=O)c4ccccc4)C(=O)O)cc3c2)ccn1 | 0.07 nM | 45 nM | 99% | – |
| O=C(O)CCNC(=O)c1cc2cc(OCC3CCNCC3)ccc2[nH]1 | 170 nM | 1000 nM | 52% | – |
| O=C(NC[C@H](NS(=O)(=O)c1ccccc1)C(=O)O)c1cc2cc(OCc3ccncc3)ccc2[nH]1 | 0.25 nM | 280 nM | 99% | – |

The next compounds have a lower IC50 (Homo sapiens) than those just listed; values first:

| ED50 [1] | IC50 (Homo sapiens) | Binding (Albumin [2]) | Binding (Albumin [3]) | SMILES |
| --- | --- | --- | --- | --- |
| 0.13 nM | 12 nM | 57% | – | O=C(NC[C@H](NS(=O)(=O)c1ccccc1)C(=O)O)c1cc2cc(OCCN3CCNCC3)ccc2[nH]1 |
| 0.06 nM | 6 nM | 85% | – | Cc1ccc(S(=O)(=O)N[C@@H](CNC(=O)c2cc3cc(OCC4CCNCC4)ccc3[nH]2)C(=O)O)cc1 |
| 0.49 nM | 15 nM | 57% | – | O=C(NC[C@H](NS(=O)(=O)c1ccccc1)C(=O)O)c1cc2ccc(OCC3CCNCC3)cc2[nH]1 |
| 0.056 nM | 8 nM | 76% | – | O=C(NC[C@H](NS(=O)(=O)c1ccccc1)C(=O)O)c1cc2cc(OCCC3CCNCC3)ccc2[nH]1 |
| 0.099 nM | 13 nM | 66% | – | O=C(NC[C@H](NS(=O)(=O)c1ccccc1)C(=O)O)c1cc2cc(OCC3CCNCC3)ccc2[nH]1 |
| 0.07 nM | 12 nM | – | – | O=C(NC[C@H](NS(=O)(=O)c1cccnc1)C(=O)O)c1cc2cc(OCC3CCNCC3)ccc2[nH]1 |
| – | 15 nM | 94% | – | Cn1c(C(=O)NC[C@H](NS(=O)(=O)c2ccccc2)C(=O)O)cc2cc(OCC3CCNCC3)ccc21 |
